Experimental findings from patent publication US4599362A, “2-aryl-ethyl ether derivatives and insecticidal and acaricidal agents containing said derivatives” (priority 1980, dated 1986) are described below.

Molecules are shown by their SMILES. ≈ marks a conversion by molar mass, not a printed value. Where two headings read alike, the source gives them in different places.

One data set deals with two-spotted spider mite. Description: Test 6: Effect on Two-Spotted Spider mite adults. The data set is classed as in vivo. The conditions noted are these: Tetranychus urticae; 500 ppm; adults; 24 hours; read-out: Mortality (%). In outline:
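Kidney bean leaf discs (15 mm) on wet cotton, each holding 10 adult mites, sprayed with 3 ml of a 500 ppm dilution of an emulsifiable concentrate. Kept at 25° C; dead adults counted after 24 hours to give mortality, averaged over three discs.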

A short description of a further data set: Test 8: Fish Toxicity. The format is in vivo. The conditions noted are these: carp, water, carps, concentration at which 1/2 of the test fishes were killed, read-out: Fish Toxicity, TLm48. The protocol: A water tank having a width of 60 cm, a length of 30 cm and a height of 40 cm was filled with water, and 10 yearling carps having a body length of about 5 cm were set free in the tank and adapted to the environment in the tank. A test compound was applied so that the concentration in water was 10, 1, or 0.1 ppm. After 48 hours, the numbers of killed and living carps were counted and the influences on the fishes were examined.

Data set [1] concerns Second-instar and fifth-instar larvae of tobacco cutworm. Description: Test 2: Tobacco Cutworm Larva Dipping Test. The data set is classed as in vivo.
A further data set has as its system green peach aphids. The data set can be described thus: Test 5: Effect on green peach Aphid. The data set is classed as in vivo. The conditions noted are these: Myzus persicae, 24 hours, mortality class, read-out: Insecticidal Activity.
Another data set deals with German cockroach. Description: Test 7: Effect on German Cockroach. The data set is classed as in vivo. The conditions noted are these: Blattella germanica, male adults, 24 hours, agonized and killed; for mortality at 10 mg/m2: 10 mg/m^2; for mortality at 50 mg/m2: 50 mg/m^2. The method, boiled down: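 Dish bottoms were treated with 50 or 10 mg/m^2 of test compound and air-dried, then 10 male adult cockroaches were released per dish and held at 25° C. Agonized and killed adults were counted after 24 hours, averaged over two dishes.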

Data set [2] is described as follows: Test 9: Toxicity Test (acute oral, mice). The conditions noted are these: mouse, in vivo, po. The method, boiled down:
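Compound dissolved or suspended in corn oil was given orally to male mice of 19–23 g body weight, at 0.2 ml per 10 g. Deaths and effects were recorded after 7 days.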

In data set [3] the test system is third-instar larvae of diamond back moth. Description: Test 4: Effect on Diamond Back Moth. The data set is classed as in vivo. The conditions noted are these: Plutella xylostella, 24 hours. The method, boiled down:
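Emulsifiable concentrate diluted in water to 100 or 20 ppm and sprayed at 3 ml per cup onto cabbage leaves holding 10 third-instar diamondback moth larvae. Dead and living larvae counted after 24 h; mortality averaged over three cups.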

Data set [4] has as its system sensitive green rice leafhopper (collected at Chigasaki). Description: Test 3: Effect on Sensitive Green Rice Leafhopper. The data set is classed as in vivo. The conditions noted are these: Nephotettix cincticeps, female adults, 24 hours. In outline: (§1)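 Rice seedlings (2–3 leaves) sprayed with emulsifiable-concentrate dilutions at 100 or 20 ppm, 3 ml per pot, air-dried, then infested with 10 female adults per pot. Mortality counted after 24 h and averaged over three pots.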

The test system of data set [5] is resistant green rice leafhopper (collected at Nakagawara). Description: Test 3: Effect on Resistant Green Rice Leafhopper. The format is in vivo, Nephotettix cincticeps Uhler. The conditions noted are these: Nephotettix cincticeps, 24 h, read-out: Mortality (%) Green Rice Leafhopper Collected at Nakagawara. The method, boiled down:
as §1

Where [6] appears, read: 20 ppm, second-instar larvae, 24 hours, read-out: Mortality (%) Second-Instar Larvae.
The mark [7] stands for this setting: 100 ppm, second-instar larvae, 24 hours, read-out: Mortality (%) Second-Instar Larvae.
[8] abbreviates: topical, 24 h, read-out: Mortality (%) Fifth-Instar Larvae.

As usually defined, the LD50 is the dose at which mortality reaches 50%. The low end stands for a more toxic substance, the high end for a less toxic substance.

Turning to `CC(C)(COCc1ccc(F)c(Oc2ccc(F)cc2)c1)c1ccc(Cl)cc1` [Compound 1, 3-(4-Fluorophenoxy)-4-fluorobenzyl 2-(4-chlorophenyl)-2-methylpropyl ether], the mortality at 500 ppm in the data set on two-spotted spider mite was 100%. Further, the LC50 at 48 h in the data set “Test 8: Fish Toxicity” is about 1 µg/mL (≈ 2.48 µM). The mortality at 20 ppm amounted to 80% in data set [1] (setting [6]), 70% in [1] (setting [8]) and 100% in data set [3]. Besides, the mortality at 100 ppm is 90% in data set [1] (setting [7]), 80% in data set [1] (setting [8]), over 95% in the data set with green peach aphids and 100% in [3]. Also, the mortality at 10 mg/m2 in the data set on German cockroach is 100%. In addition, the mortality at 50 mg/m2 in the data set with German cockroach was 100%. This compound came in with an LD50 at 168 h in data set [2] of over 500 mg/kg.
As to `CCC(COCc1ccc(F)c(Oc2ccccc2)c1)c1ccc(Cl)cc1` (centres unmarked) [Compound 6, 3-Phenoxy-4-fluorobenzyl 2-(4-chlorophenyl)-butyl ether], the mortality at 20 ppm in data set [4] amounted to 100%; in data set [1] (setting [6]), 90%; in data set [1] (setting [8]) it was 85%; in data set [5], 100%; in data set [3] it was 100%. Moreover, the mortality at 100 ppm in [4] is 100%; in data set [1] (setting [7]), 100%; in data set [1] (setting [8]) it was 100%; with green peach aphids it was over 95%; in data set [5] it was 100%; in data set [3] it was 100%. For the same compound, in the data set with two-spotted spider mite, the mortality at 500 ppm is 100%. In the data set “Test 8: Fish Toxicity”, the LC50 at 48 h was over 1 µg/mL. This compound also showed a mortality at 10 mg/m2 in the data set on German cockroach of 100%. Besides, in the data set with German cockroach, the mortality at 50 mg/m2 was 100%. The compound further came in with an LD50 at 168 h in [2] of over 500 mg/kg.
For the compound `CC(C)(COCc1ccc(F)c(Oc2ccc(Br)cc2)c1)c1ccc(Cl)cc1` [Compound 15, 3-(4-bromophenoxy)-4-fluorobenzyl 2-(4-chlorophenyl)-2-methylpropyl ether], the mortality at 500 ppm with two-spotted spider mite turned out to be 100%. The LC50 at 48 h in the data set “Test 8: Fish Toxicity” was over 10 µg/mL. Also, the mortality at 20 ppm in [1] (setting [6]), in data set [1] (setting [8]) and in data set [3] was 100% each time. For the same compound, the mortality at 100 ppm in data set [1] (setting [7]) is 100%; in [1] (setting [8]), 100%; with green peach aphids, over 95%; in [3], 100%. In addition, the mortality at 10 mg/m2 in the data set with German cockroach is 100%. In addition, the mortality at 50 mg/m2 with German cockroach came out at 100%. Besides, in data set [2], the LD50 at 168 h was over 500 mg/kg.
On to `CC(C)(COCc1ccc(Cl)c(Oc2ccccc2)c1)c1ccc(Cl)cc1` [Compound 3, 3-Phenoxy-4-chlorobenzyl 2-(4-chlorophenyl)-2-methylpropyl ether], for which the mortality at 20 ppm was determined as 80% in [4], 90% in data set [5] and 100% in data set [3]. For the same compound, the mortality at 100 ppm in [4] is 100%; with green peach aphids, over 95%; in data set [5], 100%; in data set [3], 100%. Moreover, in the data set with two-spotted spider mite, the mortality at 500 ppm came to 90%. In addition, the LC50 at 48 h in “Test 8: Fish Toxicity” is over 10 µg/mL. Further, the mortality at 10 mg/m2 in the data set on German cockroach is 90%. The same compound had a mortality at 50 mg/m2 in the data set on German cockroach of 100%. The compound further displayed an LD50 at 168 h in data set [2] of over 500 mg/kg.
With `CC(C)(COCc1ccc(F)c(Oc2ccccc2)c1)c1ccc(Cl)cc1` [Compound 10, 3-phenoxy-4-fluorobenzyl 2-(4-chlorophenyl)-2-methylpropyl ether], the mortality at 20 ppm in data set [4], in [1] (setting [6]), in data set [1] (setting [8]), in data set [5] and in [3] was 100% each time. The mortality at 100 ppm is 100% in [4]; 100% in [1] (setting [7]); 100% in data set [1] (setting [8]); over 95% in the data set on green peach aphids; 100% in data set [5]; 100% in data set [3]. For the same compound, in the data set on two-spotted spider mite, the mortality at 500 ppm was 100%. In “Test 8: Fish Toxicity”, the LC50 at 48 h was over 0.1 µg/mL. Further, the mortality at 10 mg/m2 with German cockroach stood at 100%. This compound also had a mortality at 50 mg/m2 in the data set with German cockroach of 100%. The compound further came in with an LD50 at 168 h in data set [2] of over 500 mg/kg.
